Columns and labels:
[1] = system: skin of human volunteers; experiment: Visual observation of vasodilation (blushing) after topical application of lotion to forearm; type: in vivo; settings: for Vasodilation at 0.1%: 0.1% in skin lotion; for Vasodilation at 0.1% / Vasodilation at 1.0%: anterior forearm, visual blushing; for Vasodilation at 1.0%: 1.0% in skin lotion
Experimental: This example details the first of two sets of experiments designed to determine the vasodilation effect of alkyl niacin esters. Formulations were prepared by combining the alkyl esters referred to supra in a skin lotion, at 0.1% and 1.0% concentrations. The lotions were applied topically to the skin of human volunteers on the anterior surface of a forearm. Vasodilation was observed visually, i.e., by observing blushing at the site of application, or lack thereof. Both onset and duration of vasodilation were measured.

[2] = system: skin of human volunteers; experiment: Skin oxygen / CO2 content by transcutaneous monitor after topical application; type: in vivo
Experimental: To examine this issue, the oxygen content of skin to which the octyl ester discussed supra was determined directly, using a transcutaneous oxygen monitor. The 1% formulation of the octyl ester was applied to skin for 30 minutes. After this thirty minute period, the skin was cleaned with soap and water, wiped with an alcohol swab, and a drop of deionized water was placed on the sensor surface before its attachment to the anterior surface of the volunteers' forearms. The transcutaneous values were recorded constantly, and stored by the instrument. The monitor measures relative oxygen content, because the temperature at which the monitor operates does impact the oxygen permeability of the stratum corneum. See, e.g., Martin, Resp. […] The sensor was calibrated at 4 hour intervals, or whenever the sensor temperature was changed.
The monitor was operated at a temperature of 40° C. Values are given for both a control, and the formulation described herein.
In a follow-up experiment, the monitor was operated at 38° C., and both O2 and CO2 were measured, with a combined transcutaneous oxygen and CO2 monitor. […] The control is represented by the dotted line.
Parallel experiments were carried out using 0.1% octyl niacin ester lotion, and a lotion containing octyl niacin ester (0.1%), and 0.1% butyl benzoate.
Oxygen content was measured in the same way as is described, supra, or using other techniques known to the art.

[3] = monitor at 38° C., versus control, FIG. 3

Row | Structure (SMILES) | Vasodilation at 0.1% [1] | Vasodilation at 1.0% [1] | further results
1 | COC(=O)c1cccnc1 [1 carbon] | Yes | Yes | 
2 | CCOC(=O)c1cccnc1 [2 carbons, Ethyl niacin] | Yes | Yes | Vasodilation Effect at 0.1%: Onset ([1]; 0.1% lotion, visual determination): 5 to 10 min
3 | CCCCOC(=O)c1cccnc1 [4 carbons] | Yes | Yes | 
4 | CCCCCCOC(=O)c1cccnc1 [6 carbons, Hexyl niacin] | Yes | Yes | 
5 | CCCCCCCCOC(=O)c1cccnc1 [8 carbons, Octyl niacin] | Yes | Yes | Vasodilation Effect at 0.1%: Duration ([1]; 0.1% lotion, visual determination, listed as C8): longest effect; Skin oxygen content (transcutaneous oxygen monitor) ([2]; 1% formulation applied 30 minutes, monitor at 40° C., versus control, FIG. 2): sustained increase in skin oxygen; Skin CO2 content (combined transcutaneous oxygen and CO2 monitor) [2, 3]: decrease in CO2 content; Skin oxygen content (combined transcutaneous oxygen and CO2 monitor) [2, 3]: sustained increase in skin oxygen content
6 | CCCCCCCCCOC(=O)c1cccnc1 [9 carbons] | No | Yes | Vasodilation at 1.0% ([1]; listed as C9): caused vasodilation
7 | CCCCCCCCCCOC(=O)c1cccnc1 [10 carbons] | No | Yes | Vasodilation at 1.0% ([1]; listed as C10): caused vasodilation
8 | CCCCCCCCCCCOC(=O)c1cccnc1 [11 carbons] | No | Slight | 
9 | CCCCCCCCCCCCOC(=O)c1cccnc1 [12 carbons] | No | No | 
10 | CCCCCCCCCCCCCOC(=O)c1cccnc1 [13 carbons] | No | No | 
11 | CCCCCCCCCCCCCCOC(=O)c1cccnc1 [14 carbons] | No | No | 
12 | CCCCCCCCCCCCCCCOC(=O)c1cccnc1 [15 carbons] | No | No | 
13 | CCCCCCCCCCCCCCCCOC(=O)c1cccnc1 [16 carbons] | No | No | 
14 | CCCCCCCCCCCCCCCCCCOC(=O)c1cccnc1 [18 carbons] | No | No | 
15 | CCCCOC(=O)c1ccccc1 [Butyl benzoate, reference compound] |  |  | Effect on the increase in skin oxygen content caused by octyl niacin ester ([2]; lotion with 0.1% octyl niacin ester plus 0.1% butyl benzoate versus 0.1% octyl niacin ester lotion alone, FIG. 4): blocked the increase in oxygen content
